Entries after “also recorded” stand apart in the source; their conditions may differ.
Experiments:
Type in all cases: cell-based, pig
[1] = test system: GDNF; test: Western blotting and densitometric analysis of GDNF protein expression in SCs of prepubertal pigs; settings: 48 hours plus 24 of recovery, compared to untreated SCs
Method: (§1) The animal studies were conducted in accordance with national guidelines (approved Italian animal protection certification A-3143-01) and guidelines of the Committee for the Care and Use of Animals of the University of Perugia. The experimental protocols were approved by the University of Perugia. The newborn prepubertal “Large White” pigs (Farm “Trequattrini”, S. Elena di Marsciano, PG), aged 7-15 days, were used as SC donors. The SCs were isolated in accordance with previously established methods, modified in our laboratory (Luca et al., 2015).
(§2) The SCs were maintained at 37° C. and 5% CO2 in HAMF-12 (Euroclone, MI, Italy) supplemented with 0.166 nM of retinoic acid (Sigma-Aldrich, St. Louis, MO, USA) and 5 mL/500 ml of ITS (Becton Dickinson cat. no. 354352, NJ, USA) in the absence (untreated) or presence of chemotherapeutic drugs for 48 hours plus 24 of recovery at the following concentrations: • Cisplatin 0.33 μM, 1.66 μM and 3.33 μM; • 4-hydroperoxycyclophosphamide (40HP) 50 and 100 μM; • Doxorubicin 0.1 μM, 0.2 μM and 1 μM; • cisplatin 3.33 μM plus EPA 100 μM; • cisplatin 3.33 μM plus 5-aza-2′-deoxy-cytidine (5 AZA) 1 μM.
The SCs were maintained at 37° C. and 5% CO2 in HAMF-12 (Euroclone, MI, Italia) supplemented with 0.166 nM of retinoic acid (Sigma-Aldrich, St. Louis, MO, USA) and 5 mL/500 ml of ITS (Becton Dickinson cat. no. 354352, NJ, USA) in the absence (untreated) or presence of cisplatin 0.5 and 1 μg/ml for 48 hours plus 24 of recovery plus 100 μM EPA.
The SCs were cultured at 37° C. and 5% CO2 in HAMF-12 (Euroclone, MI, Italy) supplemented with 0.166 nM of retinoic acid (Sigma-Aldrich, St. Louis, MO, USA) and 5 mL/500 ml of ITS (Becton Dickinson cat. no. 354352, NJ, USA) in the absence (untreated) or presence of cisplatin 0.5 and 1 μg/ml for 48 hours plus 24 of recovery and with the addition of 100 μM EPA. […] The images were acquired by means of the VersaDoc Imaging System (Bio-Rad Hercules, CA, USA), and the respective signals were quantified using Quantity One software (Bio-Rad) 2.8.

[2] = test system: GDNF; test: Real-time PCR analysis of GDNF gene expression in SCs of prepubertal pigs; settings: for gene expression of GDNF, real-time PCR: 48 hours plus 24 of recovery, compared to untreated SCs
Method: as §1, §2
Total RNA was isolated from the monolayers of untreated SCs and SCs treated with chemotherapeutic drugs (plus EPA or without EPA) by means of an RNA purification kit (Versagene RNA Cell Kit, Gentra Systems, Minneapolis, MN) and quantified by reading the optical density at 260 nm. Subsequently, 1 μg of total RNA was subjected to RT in a final volume of 20 μl by means of the Maxima First Strand cDNA Synthesis kit (Thermo Scientific, MA, USA). Real-time PCR was performed using 16 ng of cDNA, prepared from the RT reaction, and SYBR Green (Stratagene, Amsterdam, Netherlands). Real-time PCR was performed with an Mx3000P cycler (Stratagene) using FAM for detection and ROX as the reference dye. The level of mRNA for each sample was normalised with respect to the mRNA of β-actin and expressed as a change compared to the level of the untreated control cells.

[3] = test system: 5-hydroxymethylcytosine (5hmC); test: Immunofluorescence analysis of 5hmC in Sertoli cells (SCs) of prepubertal pigs; settings: 48 hours plus 24 of recovery, compared to untreated SCs
Method: as §1, §2
The untreated SCs and SCs treated with chemotherapeutic drugs (plus EPA or without EPA), were made to grow on round slides pre-treated with gelatine (Sigma-Aldrich). At the end of the treatment, the SCs were fixed for 30 min in 4% paraformaldehyde in phosphate buffer (PBS). Prior to immunolabelling, the cells were subjected to permeabilization (PBS, 0.2% Triton X) for 5 min at room temperature, blocked in 0.5% bovine serum albumin (BSA; Sigma-Aldrich, St. Louis, MO) in PBS for 10 min, and then exposed to the primary anti-5hmC antibody (Santa Cruz Biotechnology, 1:100 in PBS) overnight at 4° C. The cells were washed three times in PBS for 5 min and then exposed to the secondary Alexa-488 labelled antibody (1:500 in PBS). The cells were counterstained with 4′,6-diamidino-2-phenylindole (DAPI) for 1 min after treatment with RNase (10 mg/mL per 10 min.). The negative control for the immunolabelling consisted in skipping the labelling with the primary antibody and passing directly to the secondary antibody. The slides were then mounted with ProLong® Gold Antifade (ThermoFisher) and the images were acquired with an Olympus BX-41 equipped with Cell-F image processing software (Olympus).

[4] = SCs treated with doxorubicin 0.1, 0.2 and 1 μM
[5] = SCs treated with 4-hydroperoxycyclophosphamide 50 and 100 μM
[6] = SCs treated with cisplatin 0.33, 1.66 and 3.33 μM

SMILES: COc1cccc2c1C(=O)c1c(O)c3c(c(O)c1C2=O)C[C@@](O)(C(=O)CO)C[C@@H]3O[C@H]1C[C@H](N)[C@H](O)[C@H](C)O1 [doxorubicin]
- protein expression of GDNF, western blotting [1, 4]: significant reduction
- gene expression of GDNF, real-time PCR [2, 4]: significant reduction
- 5-hydroxymethylcytosine (5hmC), immunofluorescence analysis [3, 4]: progressive reduction; also recorded: significant reduction

SMILES: O=P1(N(CCCl)CCCl)NC(OO)CCO1 (stereo not drawn) [4-hydroperoxycyclophosphamide]
- protein expression of GDNF, western blotting [1, 5]: significant reduction
- gene expression of GDNF, real-time PCR [2, 5]: significant reduction
- 5-hydroxymethylcytosine (5hmC), immunofluorescence analysis [3, 5]: significant reduction
- 5-hydroxymethylcytosine (5hmC), immunofluorescence analysis ([3]; SCs treated with 4-hydroperoxycyclophosphamide 50 and 100 μM, listed as 4OHP): progressive reduction

SMILES: N.N.[Cl][Pt][Cl] [Cisplatin]
- protein expression of GDNF, western blotting [1, 6]: significant reduction
- gene expression of GDNF, real-time PCR [2, 6]: significant reduction
- 5-hydroxymethylcytosine (5hmC), immunofluorescence analysis [3, 6]: significant reduction
- 5-hydroxymethylcytosine (5hmC), immunofluorescence analysis ([3]; SCs treated with cisplatin 0.33, 1.66 and 3.33 μM, listed as cisplatin): progressive reduction

SMILES: Nc1ncn([C@H]2C[C@H](O)[C@@H](CO)O2)c(=O)n1 [AZA, 5-aza-2′-deoxycytidine]
- recovery in the expression of GDNF ([2]; SCs treated with cisplatin 3.33 μM plus 5 AZA 1 μM, compared with EPA treatment): comparable to the one induced by treatment with the fatty acid EPA; also recorded: recovery comparable to that induced by treatment with the fatty acid

Source: patent publication US20240000740A1, “OMEGA-3 POLYUNSATURATED FATTY ACIDS FOR TREATING / PREVENTING MALE INFERTILITY IN PREPUBERTAL CANDIDATES FOR GONADOTOXIC THERAPIES” (UNIVERSITA' DEGLI STUDI DI PERUGIA, priority 2020, published 2024)
